The source of these data is US8796330B2, “Inhibitors of histone deacetylase and prodrugs thereof” (Methylgene Inc., priority 2006, dated 2014).

In brackets after ≈: the same amount, converted by molar mass. Like-named read-outs stand apart in the source and are kept apart here.

One data set concerns the target rHDAC-1 (Homo sapiens (Human), UniProt Q13547). Briefly: Fluorogenic Boc-Lys(Ac)-AMC deacetylase assay (Table 4a), rHDAC-1. The class given is biochemical. The following applies: for IC50: Boc-Lys(Ac)-AMC substrate, PI values = IC50 at maximum % inhibition reached; for rHDAC-1 partial inhibition (maximum % inhibition reached): PI = 100% inhibition not reached. Here is the method:
(§1) Alternatively (Table 4a), the following protocol is used to assay the compounds of the invention. In the assay, the buffer used is 25 mM HEPES, pH 8.0, 137 mM NaCl, 2.7 mM KCl, 1 mM MgCl2 and the substrate is Boc-Lys(Ac)-AMC in a 50 mM stock solution in DMSO. The enzyme stock solution is 4.08 μg/mL in buffer. The compounds are pre-incubated (2 μl in DMSO diluted to 13 μl in buffer for transfer to assay plate) with enzyme (20 μl of 4.08 μg/ml) for 10 minutes at room temperature (35 μl pre-incubation volume). The mixture is pre-incubated for 5 minutes at room temperature. The reaction is started by bringing the temperature to 37° C. and adding […] substrate. Total reaction volume is 50 μl. […] A plate is incubated in the dark for 10 minutes at room temperature before reading (λEx=360 nm, λEm=470 nm, Cutoff filter at 435 nm).

In another data set the target is rHDAC-8 (Homo sapiens (Human), UniProt Q9BY41). Briefly: Fluorogenic Boc-Lys(Ac)-AMC deacetylase assay (Table 4a), rHDAC-8. The note with it: for IC50: Boc-Lys(Ac)-AMC substrate, PI values = IC50 at maximum % inhibition reached; for rHDAC-8 partial inhibition (maximum % inhibition reached): PI = 100% inhibition not reached. The class given is biochemical. Here is the method:
as §1

A further data set in a line: Solubility. Type of data set: physicochemical.
Data set [1] has as its system histone deacetylase in nuclear extracts from H446 cells (pooled HDACs). Briefly: Inhibition of histone deacetylase in H446 nuclear extracts ([3H]-acetylated histone substrate). Type of data set: biochemical, human.
The target in data set [2] is recombinant human HDAC-1 enzyme (rHDAC-1) (Homo sapiens (Human), UniProt Q13547). Briefly: Inhibition of recombinant human HDAC-1 ([3H]-acetylated histone substrate). Type of data set: biochemical.
Sequence of recombinant human HDAC-1 enzyme (rHDAC-1) (Q13547 whole entry): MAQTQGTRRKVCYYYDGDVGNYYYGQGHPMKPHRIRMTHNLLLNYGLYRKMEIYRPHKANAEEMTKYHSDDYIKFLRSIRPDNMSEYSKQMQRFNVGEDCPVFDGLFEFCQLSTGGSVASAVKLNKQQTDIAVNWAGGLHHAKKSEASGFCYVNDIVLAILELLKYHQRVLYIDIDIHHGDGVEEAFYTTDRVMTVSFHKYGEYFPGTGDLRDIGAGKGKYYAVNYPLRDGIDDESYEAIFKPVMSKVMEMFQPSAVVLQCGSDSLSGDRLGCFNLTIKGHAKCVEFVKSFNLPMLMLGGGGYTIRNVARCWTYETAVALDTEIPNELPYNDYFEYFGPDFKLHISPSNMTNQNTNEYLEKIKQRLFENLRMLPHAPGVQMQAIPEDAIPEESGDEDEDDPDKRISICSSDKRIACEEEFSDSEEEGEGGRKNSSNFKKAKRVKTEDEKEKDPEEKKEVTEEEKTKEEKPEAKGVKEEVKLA
Data set [3] deals with acetylated histone H-4 in T24 human bladder cancer cells. Briefly: Histone H4 acetylation in whole cells by immunoblots. The class given is cell-based. The following applies: T-24, read-out: EC50, concentration effective for increasing the acetylated H-4 signal by 50%, 16 hours incubation, immunoblot densitometry. Here is the method: T24 human bladder cancer cells growing in culture are incubated with HDAC inhibitors for 16 hours. […] of total histone protein are loaded onto SDS/PAGE and transferred to nitrocellulose membranes. Membranes are probed with polyclonal antibodies specific for acetylated histone H-4 (Upstate Biotech Inc.), followed by horse radish peroxidase conjugated secondary antibodies (Sigma). Enhanced Chemiluminescence (ECL) (Amersham) detection is performed using Kodak films (Eastman Kodak). Acetylated H-4 signal is quantified by densitometry.
A general note: A western blot detects proteins with antibodies after separation by electrophoresis.

[4] abbreviates: Milli-Q purified water, read-out: Solubility Water.
Setting [5] is: pH 2, simulated gastric fluid, read-out: Solubility pH 2.
Where [6] appears, read: Table 4, recombinant human HDAC-1.

Sequence of rHDAC-8 (Q9BY41 whole entry): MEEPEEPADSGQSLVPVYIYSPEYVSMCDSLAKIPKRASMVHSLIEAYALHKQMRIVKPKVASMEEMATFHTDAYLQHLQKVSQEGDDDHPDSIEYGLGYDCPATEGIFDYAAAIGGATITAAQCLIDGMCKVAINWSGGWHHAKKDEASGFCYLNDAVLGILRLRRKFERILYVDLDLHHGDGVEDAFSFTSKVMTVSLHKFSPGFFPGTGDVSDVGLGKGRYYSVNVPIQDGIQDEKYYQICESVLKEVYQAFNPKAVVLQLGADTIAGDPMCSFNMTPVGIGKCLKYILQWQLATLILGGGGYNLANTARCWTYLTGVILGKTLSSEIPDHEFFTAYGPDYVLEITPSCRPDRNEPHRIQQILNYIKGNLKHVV
Sequence of rHDAC-1 (Q13547 whole entry): as the sequence (Q13547 whole entry) above

Turning to `O=C(Cc1ccc(CCCCc2ccc3[nH]ccc3c2)cc1)NO` [Compound 183, 2-(4-(4-(1H-indol-5-yl)butyl)phenyl)-N-hydroxyacetamide], the concentration for half-maximal inhibition (IC50) at rHDAC-1 was determined as 380 nM; against rHDAC-8, 410 nM.
With `O=C(Cc1ccc(CCCCc2cccc(C(F)(F)F)c2)cc1)NO` [Compound 184, N-hydroxy-2-(4-(4-(3-(trifluoromethyl)phenyl)butyl)phenyl)acetamide], the half-inhibitory concentration (IC50) against rHDAC-1 was 930 nM; at rHDAC-8 it was 400 nM. For the same compound, on rHDAC-8, the “rHDAC-8 partial inhibition (maximum % inhibition reached)” value was determined as 79%.
Regarding `O=C(Cc1ccc(CCCCc2ccc(C(F)(F)F)cc2)cc1)NO` [Compound 182, N-hydroxy-2-(4-(4-(4-(trifluoromethyl)phenyl)butyl)phenyl)acetamide], at rHDAC-1, the IC50 was determined as 700 nM and the “rHDAC-1 partial inhibition (maximum % inhibition reached)” value was 64%. On rHDAC-8, the IC50 amounted to 1300 nM and the “rHDAC-8 partial inhibition (maximum % inhibition reached)” value worked out at 74%.
Regarding `Cl.NCC1(C(=O)ONC(=O)Cc2ccc(CCCCc3ccccc3)cc2)CC1` [Compound 174g, N-(1-(aminomethyl)cyclopropanecarbonyloxy)-2-(4-(4-phenylbutyl)phenyl)acetamide hydrochloride], the solubility was 195 µM in “Solubility” (setting [4]) and 132 µM in the data set “Solubility” (setting [5]).
As to `O=C(Cc1ccc(CCCCc2ccc3c(c2)OCO3)cc1)NO` [Compound 187, 2-(4-(4-(benzo[d][1,3]dioxol-5-yl)butyl)phenyl)-N-hydroxyacetamide], the results for the IC50 at rHDAC-1 and at rHDAC-8 were 200 nM and 210 nM, respectively. Further, on rHDAC-1, the “rHDAC-1 partial inhibition (maximum % inhibition reached)” value stood at 62%.
Consider `O=C(Cc1ccc(CCCCc2ccccc2)cc1)NO` [H], for which the solubility in “Solubility” (setting [4]) and in “Solubility” (setting [5]) was 3 µM (≈ 0.85 µg/mL) each time.
For `O=C(Cc1ccc(CCCCc2ccccc2C(F)(F)F)cc1)NO` [Compound 185, N-hydroxy-2-(4-(4-(2-(trifluoromethyl)phenyl)butyl)phenyl)acetamide], the IC50 came to 840 nM against rHDAC-1 and 610 nM on rHDAC-8.
As for `COc1ccc(S(=O)(=O)Nc2ccc(/C=C/C(=O)NO)cc2)cc1` [Compound 113], the “pooled HDACs percent inhibition” value in data set [1] (H446 nuclear extract, @ 1 μM) came out at 46% @ 1 μM. Besides, the IC50 in data set [2] (setting [6]) came out at 200 nM.
`O=C(Cc1ccc(CCCCc2cc(F)c(F)cc2F)cc1)NO` [Compound 179, N-hydroxy-2-(4-(4-(2,4,5-trifluorophenyl)butyl)phenyl)acetamide]: the IC50 on rHDAC-1 came out at 500 nM; against rHDAC-8 it was 530 nM.
As to `COc1ccc(S(=O)(=O)Nc2ccc(/C=C/C(=O)Nc3ccccc3N)cc2)cc1` [Compound 122], the EC50 in data set [3] stood at 2000 nM.
For the compound `O=C(/C=C/c1ccc(NS(=O)(=O)c2ccccc2)cc1)NO` [Compound 36, N-Hydroxy-3-[4-(benzenesulfonylamino)-phenyl]-2-propenamide], 500 nM corresponded to half-maximal inhibition in data set [1] (H446 nuclear extract) (IC50). For the same compound, in data set [3], the EC50 is 5000 nM.
For `O=C(/C=C/c1ccc(NS(=O)(=O)c2ccc(-c3ccccc3)cc2)cc1)NO` [Compound 120], the IC50 in data set [1] (H446 nuclear extract) was found to be 120 nM; in data set [2] (setting [6]), 10 nM. The EC50 in data set [3] amounted to 1000 nM.
For `O=C(/C=C/c1ccc(NS(=O)(=O)c2cc3ccccc3s2)cc1)NO` [Compound 95], the values for the IC50 in data set [1] (H446 nuclear extract) and in data set [2] (setting [6]) were 800 nM and 200 nM, respectively.
Turning to `CC(C)c1cc(C(C)C)c(S(=O)(=O)Nc2ccc(/C=C/C(=O)NO)cc2)c(C(C)C)c1` [Compound 110], the IC50 was 700 nM in data set [1] (H446 nuclear extract) and 550 nM in data set [2] (setting [6]).
On to `CC(C)C(Cc1ccc(NS(=O)(=O)c2ccccc2)cc1)C(=O)NO` (stereo not shown) [Compound 81], for which the values for the IC50 in data set [1] (H446 nuclear extract) and in data set [2] (setting [6]) were > 50000 nM and > 25000 nM, respectively.
As to `Nc1ccccc1NC(=O)/C=C/c1ccc(NS(=O)(=O)c2cccc3ccccc23)cc1` [Compound 107], in data set [1] (H446 nuclear extract, @ 1 μM), the “pooled HDACs percent inhibition” value is 0% @ 1 μM. The IC50 in data set [2] (setting [6]) is 5000 nM. For the same compound, the EC50 in data set [3] came out at 5000 nM.
Turning to `CC(C)(N)C(=O)ONC(=O)Cc1ccc(CCCCc2ccccc2)cc1.Cl` [Compound 174f, N-(2-amino-2-methylpropanoyloxy)-2-(4-(4-phenylbutyl)phenyl)acetamide hydrochloride], the solubility is 5 µM in “Solubility” (setting [4]) and 4 µM in the data set “Solubility” (setting [5]).
As to `O=C(/C=C/c1ccc(NS(=O)(=O)c2ccc(Cl)cc2Cl)cc1)NO` [Compound 106], the IC50 in data set [1] (H446 nuclear extract) worked out at 800 nM; in data set [2] (setting [6]) it was 300 nM.
Regarding `O=C(NO)c1ccc(CCSc2ccccc2)cc1` [Compound 70, N-Hydroxy-4-(2-thiophenyl)-ethyl benzamide], the IC50 was 5500 nM in data set [1] and 900 nM in data set [2].
`O=C(/C=C/c1ccc(NS(=O)(=O)c2ccc3ccccc3c2)cc1)NO` [Compound 94]: the IC50 in data set [1] (H446 nuclear extract) was determined as 400 nM; in data set [2] (setting [6]) it was 30 nM.
With `O=C(/C=C/c1ccc(NS(=O)(=O)Cc2ccccc2)cc1)NO` [Compound 100], the IC50 in data set [1] (H446 nuclear extract) was determined as 800 nM; in data set [2] (setting [6]), 750 nM.
Turning to `Cc1ccc(S(=O)(=O)Nc2ccc(/C=C/C(=O)NO)cc2)cc1` [Compound 108], the “pooled HDACs percent inhibition” value in data set [1] (H446 nuclear extract, @ 1 μM) was 10% @ 1 μM. In data set [2] (setting [6]), the IC50 was found to be 300 nM.
Turning to `O=C(CCc1ccc(NS(=O)(=O)c2ccccc2)cc1)NO` [Compound 38, N-Hydroxy-3-[4-(benzenesulfonylamino)-phenyl]-2-propanamide], the IC50 was found to be 750 nM in data set [1] (H446 nuclear extract) and 100 nM in data set [2] (setting [6]).
Turning to `COc1ccc(S(=O)(=O)Nc2ccc(/C=C/C(=O)NO)cc2)cc1OC` [Compound 90], inhibition in data set [1] (H446 nuclear extract) was half-maximal at 400 nM (IC50). Further, in data set [3], the EC50 was determined as 1000 nM.
Consider `Nc1ccccc1NC(=O)c1ccc(CC(=O)c2ccccc2)o1` [Compound 178], for which, in data set [1] (H446 nuclear extract, @ 20 μM), the “pooled HDACs percent inhibition” value turned out to be 2% @ 20 μM. In data set [2] (setting [6]), the IC50 was > 20000 nM.

As a reminder, the IC50 is the concentration that gives 50% inhibition. For orientation: solubility means how much of the substance goes into solution per volume.
